{"source": "patent US6943160B2", "about": "“Morpholine derivatives as antagonists of orexin receptors” (SmithKline Beecham plc, priority 2000, dated 2005)", "origin": "cited, not measured here", "key": {"freely-feeding rats": {"system": "freely-feeding rats", "conditions": "central administration, 4 hour time period"}, "orexin receptors": {"system": "orexin receptors", "conditions": "central administration at onset of normal sleep period, rat"}}, "data": [{"substance": "orexin-A: ligand (agonist) of the orexin receptors; human orexin-A has sequence SEQ ID NO: 1, pyroEPLPDCCRQKTCSCRLYELLHGAGNHAAGILTL-NH2", "values": [{"measurement": "increase in food intake over control rats receiving vehicle", "setting": "freely-feeding rats", "value": "approximately four-fold"}, {"measurement": "effect on arousal", "setting": "orexin receptors", "value": "dose-related increase in arousal"}]}]}
